Source: patent US7153813B2, “Substituted aryl ketones” (Bayer Aktiengesellschaft, priority 2002, dated 2006)
Where two headings read alike, the source gives them in different places.

How the values were obtained:
weeds [1] = assay: Pre-Emergence Test (Example A), damage to weeds; format: in vivo; details: soil sprayed 24 hours after sowing, rated after three weeks
Procedure: (§1) • Solvent: 5 parts by weight of acetone • Emulsifier: 1 part by weight of alkylaryl polyglycol ether
To produce a suitable preparation of active compound, 1 part by weight of active compound is mixed with the stated amount of solvent, the stated amount of emulsifier is added and the concentrate is diluted with water to the desired concentration.
Seeds of the test plants are sown in normal soil. After 24 hours, the soil is sprayed with the preparation of active compound such that the particular amount of active compound desired is applied per unit area. The concentration of active compound in the spray liquor is chosen such that the particular amount of active compound desired is applied in 1000 liters of water per hectare.
After three Weeks, the degree of damage to the plants is rated in % damage in comparison to the development of the untreated control. The figures denote: • 0%=no effect (like untreated control) • 100%=total destruction

weeds [2] = assay: Post-Emergence Test (Example B), damage to weeds; format: in vivo; details: test plants of 5–15 cm sprayed, rated after three weeks
Procedure: as §1
To produce a suitable preparation of active compound, 1 part by weight of active compound is mixed with the stated amount of solvent, the stated of amount of emulsifier is added and the concentrate is diluted with water to the desired concentration.
Test plants of a height of 5–15 cm are sprayed with the preparation of active compound such that the particular amounts of active compound desired are applied per unit area. The concentration of the spray liquor is chosen such that the particular amounts of active compound desired are applied in 1000 l of water/Ha.
After three weeks, the degree of damage to the plants is rated in % damage in comparison to the development of the untreated control.
The figures denote: • 0%=no effect (like untreated control) • 100%=total destruction

[3] = logP determination by HPLC (EEC Directive 79/831 Annex V.A8), reverse-phase column C 18; format: physicochemical; details: for chromatographic logP: reverse-phase C18 HPLC column, stated in the preparation example, read-out: Log P
Procedure: The logP values given in the tables were determined in accordance with EEC Directive 79/831 Annex V.A8 by HPLC (High Performance Liquid Chromatography) using a reverse-phase column (C 18). Temperature: 43° C. • (a) Mobile phases for the determination in the acidic range: 0.1% aqueous phosphoric acid, acetonitrile; linear gradient from 10% acetonitrile to 90% acetonitrile—corresponding measurement data are marked a) in Table 1. • (b) Mobile phases for the determination in the neutral range: 0.01 molar aqueous phosphate buffer solution, acetonitrile; linear gradient from 10% acetonitrile to 90% acetonitrile—the corresponding measurement data are marked b) in Table 1. The calibration was carried out using unbranched alkan-2-ones (having 3 to 16 carbon atoms) with known logP values (determination of the logP values by the retention times using linear interpolation between two successive alkanones).

[4] = HPLC, reverse-phase C 18, 43° C., acidic range: 0.1% aqueous phosphoric acid, acetonitrile, gradient 10% to 90% (marked a))

logP [3, 4] | chromatographic logP [3] | logP [3] | SMILES | activity against weeds (degree of damage) (weeds [1]) | activity against weeds (degree of damage) (weeds [2])
logP = 1.88^a) | 1.88 |  | CCn1ncc(C(=O)c2ccc(C(F)(F)F)cc2CS(C)(=O)=O)c1O [Example 1, (1-ethyl-5-hydroxy-1H-pyrazol-4-yl)-(2-methylsulphonylmethyl-4-trifluoromethylphenyl)methanone] | strong activity | strong activity
logP = 3.76^a) | 3.76 |  | CCn1ncc(C(=O)c2ccc(C(F)(F)F)cc2CS(C)(=O)=O)c1OCc1ccc(Br)cc1 [Example 2, [1-ethyl-5-(4-bromophenylmethoxy)-1H-pyrazol-4-yl]-(2-methylsulphonylmethyl-4-trifluoromethylphenyl)methanone] | strong activity | strong activity
logP = 1.57^a) |  |  | Cn1ncc(C(=O)c2ccc(C(F)(F)F)cc2CS(C)(=O)=O)c1O [Example 4] | strong activity | 
 |  | logP = 2.94^a) | Cn1ncc(C(=O)c2ccc(C(F)(F)F)cc2CS(C)(=O)=O)c1OCc1ccccc1 [Example 5] | strong activity | strong activity
 |  | logP = 3.02^a) | Cn1ncc(C(=O)c2ccc(C(F)(F)F)cc2CS(C)(=O)=O)c1OCc1ccc(F)cc1 [Example 6] | strong activity | 
 |  | logP = 3.32^a) | Cn1ncc(C(=O)c2ccc(C(F)(F)F)cc2CS(C)(=O)=O)c1OCc1ccc(Cl)cc1 [Example 7] | strong activity | 
 |  | logP = 3.41^a) | Cn1ncc(C(=O)c2ccc(C(F)(F)F)cc2CS(C)(=O)=O)c1OCc1ccc(Br)cc1 [Example 8] | strong activity | 
 |  | logP = 3.26^a) | Cc1ccc(COc2c(C(=O)c3ccc(C(F)(F)F)cc3CS(C)(=O)=O)cnn2C)cc1 [Example 9] | strong activity | 
 |  | logP = 3.64^a) | CCn1ncc(C(=O)c2ccc(C(F)(F)F)cc2CS(C)(=O)=O)c1OCc1ccc(Cl)cc1 [Example 10] | strong activity | 
 |  | logP = 3.26^a) | CCn1ncc(C(=O)c2ccc(C(F)(F)F)cc2CS(C)(=O)=O)c1OCc1ccccc1 [Example 11] | strong activity | 
 |  | logP = 3.30^a) | CCn1ncc(C(=O)c2ccc(C(F)(F)F)cc2CS(C)(=O)=O)c1OCc1ccc(F)cc1 [Example 12] | strong activity | 
 |  | logP = 3.57^a) | CCn1ncc(C(=O)c2ccc(C(F)(F)F)cc2CS(C)(=O)=O)c1OCc1ccc(C)cc1 [Example 13] | strong activity | 
 |  | logP = 3.30^a) | CCn1ncc(C(=O)c2ccc(C(F)(F)F)cc2CS(C)(=O)=O)c1OCc1cccc(F)c1 [Example 14] | strong activity | 
 |  | logP = 3.60^a) | CCn1ncc(C(=O)c2ccc(C(F)(F)F)cc2CS(C)(=O)=O)c1OCc1cccc(Cl)c1 [Example 15] | strong activity | 
 |  | logP = 3.57^a) | CCn1ncc(C(=O)c2ccc(C(F)(F)F)cc2CS(C)(=O)=O)c1OCc1cccc(C)c1 [Example 16] | strong activity | 
 |  | logP = 3.29^a) | CCn1ncc(C(=O)c2ccc(C(F)(F)F)cc2CS(C)(=O)=O)c1OCc1ccccc1F [Example 17] | strong activity | 
 |  | logP = 3.56^a) | CCn1ncc(C(=O)c2ccc(C(F)(F)F)cc2CS(C)(=O)=O)c1OCc1ccccc1Cl [Example 18] | strong activity | strong activity
 |  | logP = 3.52^a) | CCn1ncc(C(=O)c2ccc(C(F)(F)F)cc2CS(C)(=O)=O)c1OCc1ccccc1C [Example 19] | strong activity | strong activity
 |  | logP = 3.01^a) | CCn1ncc(C(=O)c2ccc(C(F)(F)F)cc2CS(C)(=O)=O)c1OCC(=O)c1ccccc1 [Example 20] | strong activity | strong activity
 |  | logP = 3.07^a) | CCn1ncc(C(=O)c2ccc(C(F)(F)F)cc2CS(C)(=O)=O)c1OC(=O)c1ccccc1 [Example 21] | strong activity | 
 |  | logP = 2.50^a) | CCn1ncc(C(=O)c2ccc(C(F)(F)F)cc2CS(C)(=O)=O)c1OS(C)(=O)=O [Example 23] | strong activity | strong activity
 |  | logP = 2.59^a) | C#CCOc1c(C(=O)c2ccc(C(F)(F)F)cc2CS(C)(=O)=O)cnn1CC [Example 24] |  | 
 |  | logP = 2.72^a) | CCOC(=O)COc1c(C(=O)c2ccc(C(F)(F)F)cc2CS(C)(=O)=O)cnn1CC [Example 25] |  | 
 |  | logP = 3.01^a) | CCOC(=O)C(C)Oc1c(C(=O)c2ccc(C(F)(F)F)cc2CS(C)(=O)=O)cnn1CC (centres unmarked) [Example 26] |  | 
 |  | logP = 2.44^a) | CCOC(=O)COc1c(C(=O)c2ccc(C(F)(F)F)cc2CS(C)(=O)=O)cnn1C [Example 27] |  | 
 |  | logP = 2.70^a) | CCOC(=O)C(C)Oc1c(C(=O)c2ccc(C(F)(F)F)cc2CS(C)(=O)=O)cnn1C (centres unmarked) [Example 28] |  | 
 |  | logP = 2.30^a) | C#CCOc1c(C(=O)c2ccc(C(F)(F)F)cc2CS(C)(=O)=O)cnn1C [Example 29] |  | 
 |  | logP = 2.86^a) | CC1(C)CCC(=O)C(C(=O)c2ccc(C(F)(F)F)cc2CS(C)(=O)=O)C1=O (centres unmarked) [Example 30] |  | 
logP = 3.36^a) |  |  | CCSCc1cc(C(F)(F)F)ccc1C(=O)c1cnn(CC)c1O [Example 32] |  | 
 |  | logP = 2.42^a) | CS(=O)(=O)Cc1cc(C(F)(F)F)ccc1C(=O)C1=C(Cl)CCCC1=O [Example 33] |  | 

SMILES | logP [3, 4] | chromatographic logP [3] | logP [3] | activity against weeds (degree of damage) (weeds [1]) | activity against weeds (degree of damage) (weeds [2])
CCn1ncc(C(=O)c2ccc(C(F)(F)F)cc2CS(C)(=O)=O)c1OS(=O)(=O)c1ccc(C)cc1 [Example 22] | logP = 3.39^a) |  |  | strong activity | 
